In patent US10221177B2 (HYDRA BIOSCIENCES, INC., priority 2014, dated 2019):

Target: human TRPA1 (Homo sapiens (Human), UniProt O75762)
Test: In vitro inhibition of human TRPA1, whole cell patch configuration
Assay type: cell-based
Settings: current activation 10 μM AITC, tested concentrations 320 pM to 3.2 μM, read-out: hTRPA1 IC50
Procedure, shortened: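 Whole-cell patch clamp, bath 150 mM NaCl, 10 mM HEPES, 1 mM EGTA, 3 mM MgCl2, pH 7.4 (sometimes 2 mM CaCl2, 1 mM MgCl2). Currents recorded continuously at −60 mV or by 400 ms ramps from −40 mV holding every 4 s; inward/outward currents taken at −80/80 mV, with controlled-temperature focal perfusion.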

Chain of human TRPA1 (O75762 whole entry): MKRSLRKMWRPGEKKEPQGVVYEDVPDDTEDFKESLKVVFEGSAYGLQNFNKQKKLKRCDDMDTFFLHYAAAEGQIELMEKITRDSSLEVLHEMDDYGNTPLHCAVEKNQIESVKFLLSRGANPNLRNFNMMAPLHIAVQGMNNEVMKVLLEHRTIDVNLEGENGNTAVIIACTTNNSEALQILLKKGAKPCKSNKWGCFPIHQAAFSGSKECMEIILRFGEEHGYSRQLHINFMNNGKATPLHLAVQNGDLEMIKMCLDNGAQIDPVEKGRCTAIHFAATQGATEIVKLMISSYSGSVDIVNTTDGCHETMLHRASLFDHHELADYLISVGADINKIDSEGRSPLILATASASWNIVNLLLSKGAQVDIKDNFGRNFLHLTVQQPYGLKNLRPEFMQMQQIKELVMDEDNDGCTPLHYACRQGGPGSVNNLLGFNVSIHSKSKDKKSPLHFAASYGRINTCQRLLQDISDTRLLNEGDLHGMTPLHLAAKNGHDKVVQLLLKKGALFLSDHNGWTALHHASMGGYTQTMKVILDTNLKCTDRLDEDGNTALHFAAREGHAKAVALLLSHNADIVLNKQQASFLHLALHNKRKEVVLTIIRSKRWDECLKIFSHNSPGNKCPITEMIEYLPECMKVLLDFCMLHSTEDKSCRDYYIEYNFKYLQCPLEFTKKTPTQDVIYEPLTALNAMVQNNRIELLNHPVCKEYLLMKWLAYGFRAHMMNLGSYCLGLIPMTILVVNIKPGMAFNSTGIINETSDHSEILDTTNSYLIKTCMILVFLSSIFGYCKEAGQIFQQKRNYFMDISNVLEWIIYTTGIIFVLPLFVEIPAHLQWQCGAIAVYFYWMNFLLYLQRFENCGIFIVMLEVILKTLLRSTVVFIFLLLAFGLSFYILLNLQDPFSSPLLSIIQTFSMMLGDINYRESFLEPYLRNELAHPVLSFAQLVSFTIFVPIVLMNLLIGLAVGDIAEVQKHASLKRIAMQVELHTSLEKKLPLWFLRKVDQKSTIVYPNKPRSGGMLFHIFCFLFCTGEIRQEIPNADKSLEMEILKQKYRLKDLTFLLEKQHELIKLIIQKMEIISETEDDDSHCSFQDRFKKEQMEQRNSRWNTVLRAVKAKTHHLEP

Row | Structure (SMILES) | IC50 [nM]
1 | C[C@@H](C(=O)Nc1cccc(-c2cnc(C(F)(F)F)nc2)n1)n1cnc2c1c(=O)n(CC1CCO1)c(=O)n2C (stereo partly drawn) [Compound 88, (2S)-2-(3-methyl-1-(oxetan-2-ylmethyl)-2,6-dioxo-2,3-dihydro-1H-purin-7(6H)-yl)-N-(6-(2-(trifluoromethyl)pyrimidin-5-yl)pyridin-2-yl)propanamide] | 894
2 | CC(=O)Cn1c(=O)c2c(ncn2[C@@H](C)C(=O)Nc2csc(-c3cnc(C)c(F)c3)n2)n(C)c1=O [Compound 92, (S)—N-(2-(5-fluoro-6-methylpyridin-3-yl)thiazol-4-yl)-2-(3-methyl-2,6-dioxo-1-(2-oxopropyl)-2,3-dihydro-1H-purin-7(6H)-yl)propanamide] | 33
3 | Cc1cc(Cn2c(=O)c3c(ncn3[C@@H](C)C(=O)Nc3cccc(-c4nc(=O)o[nH]4)n3)n(C)c2=O)no1 [Compound 93, (S)-2-(3-methyl-1-((5-methylisoxazol-3-yl)methyl)-2,6-dioxo-2,3-dihydro-1H-purin-7(6H)-yl)-N-(6-(5-oxo-2,5-dihydro-1,2,4-oxadiazol-3-yl)pyridin-2-yl)propanamide] | > 3200
4 | C[C@@H](C(=O)Nc1cccc(-c2ccc(C(F)(F)F)nc2)n1)n1cnc2c1c(=O)n(Cc1ccon1)c(=O)n2C [Compound 95, (S)-2-(1-(isoxazol-3-ylmethyl)-3-methyl-2,6-dioxo-2,3-dihydro-1H-purin-7(6H)-yl)-N-(6′-(trifluoromethyl)-[2,3′-bipyridin]-6-yl)propanamide] | 9
5 | CC(=O)Cn1c(=O)c2c(ncn2[C@@H](C)C(=O)Nc2csc(-c3cnc(C)c(C(F)(F)F)c3)n2)n(C)c1=O [Compound 98, (S)-2-(3-methyl-2,6-dioxo-1-(2-oxopropyl)-2,3-dihydro-1H-purin-7(6H)-yl)-N-(2-(6-methyl-5-(trifluoromethyl)pyridin-3-yl)thiazol-4-yl)propanamide] | 3
6 | Cc1cc(Cn2c(=O)c3c(ncn3[C@@H](C)C(=O)Nc3csc(-c4cnc(C)c(F)c4)n3)n(C)c2=O)no1 [Compound 100, (S)—N-(2-(5-fluoro-6-methylpyridin-3-yl)thiazol-4-yl)-2-(3-methyl-1-((5-methylisoxazol-3-yl)methyl)-2,6-dioxo-2,3-dihydro-1H-purin-7(6H)-yl)propanamide] | 8
7 | CCC(=O)Cn1c(=O)c2c(ncn2[C@@H](C)C(=O)Nc2csc(-c3cnc(C)c(F)c3)n2)n(C)c1=O [Compound 101, (S)—N-(2-(5-fluoro-6-methylpyridin-3-yl)thiazol-4-yl)-2-(3-methyl-2,6-dioxo-1-(2-oxobutyl)-2,3-dihydro-1H-purin-7(6H)-yl)propanamide] | 12
8 | CC(=O)Cn1c(=O)c2c(ncn2[C@@H](C)C(=O)Nc2cncc(-c3cnc(C)c(C(F)(F)F)c3)n2)n(C)c1=O [Compound 109, (S)-2-(3-methyl-2,6-dioxo-1-(2-oxopropyl)-2,3-dihydro-1H-purin-7(6H)-yl)-N-(6-(6-methyl-5-(trifluoromethyl)pyridin-3-yl)pyrazin-2-yl)propanamide] | 8
9 | CC(=O)Cn1c(=O)c2c(ncn2[C@@H](C)C(=O)Nc2ccnc(-c3cnc(C)c(C(F)(F)F)c3)n2)n(C)c1=O [Compound 111] | 3

Further lines, results first:

Row | IC50 [nM] | Structure (SMILES)
10 | 3 | CCC(=O)Cn1c(=O)c2c(ncn2[C@@H](C)C(=O)Nc2csc(-c3cnc(C)c(Cl)c3)n2)n(C)c1=O [Compound 90]
11 | 2 | Cc1cc(Cn2c(=O)c3c(ncn3[C@@H](C)C(=O)Nc3csc(-c4cnc(C)c(Cl)c4)n3)n(C)c2=O)no1 [Compound 91]
12 | 3 | Cc1cc(Cn2c(=O)c3c(ncn3[C@@H](C)C(=O)Nc3csc(-c4cnc(C(F)(F)F)c(C)c4)n3)n(C)c2=O)no1 [Compound 94, (S)-2-(3-methyl-1-((5-methylisoxazol-3-yl)methyl)-2,6-dioxo-2,3-dihydro-1H-purin-7(6H)-yl)-N-(2-(5-methyl-6-(trifluoromethyl)pyridin-3-yl)thiazol-4-yl)propanamide]
13 | 2 | Cc1cc(Cn2c(=O)c3c(ncn3[C@@H](C)C(=O)Nc3cncc(-c4cnc(N5CCC[C@H]5C(F)(F)F)nc4)n3)n(C)c2=O)no1 [Compound 96, (S)-2-(3-methyl-1-((5-methylisoxazol-3-yl)methyl)-2,6-dioxo-2,3-dihydro-1H-purin-7(6H)-yl)-N-(6-(2-((S)-2-(trifluoromethyl)pyrrolidin-1-yl)pyrimidin-5-yl)pyrazin-2-yl)propanamide]
14 | 1 | CCC(=O)Cn1c(=O)c2c(ncn2[C@@H](C)C(=O)Nc2csc(-c3cnc(C)c(C(F)(F)F)c3)n2)n(C)c1=O [Compound 99, (S)-2-(3-methyl-2,6-dioxo-1-(2-oxobutyl)-2,3-dihydro-1H-purin-7(6H)-yl)-N-(2-(6-methyl-5-(trifluoromethyl)pyridin-3-yl)thiazol-4-yl)propanamide]
15 | 1 | Cc1noc(Cn2c(=O)c3c(ncn3[C@@H](C)C(=O)Nc3csc(-c4cnc(C(F)(F)F)c(C)c4)n3)n(C)c2=O)n1 [Compound 107, (S)-2-(3-methyl-1-((3-methyl-1,2,4-oxadiazol-5-yl)methyl)-2,6-dioxo-2,3-dihydro-1H-purin-7(6H)-yl)-N-(2-(5-methyl-6-(trifluoromethyl)pyridin-3-yl)thiazol-4-yl)propanamide]
16 | 1 | Cc1noc(Cn2c(=O)c3c(ncn3[C@@H](C)C(=O)Nc3csc(-c4cnc(C)c(C(F)(F)F)c4)n3)n(C)c2=O)n1 [Compound 108, (S)-2-(3-methyl-1-((3-methyl-1,2,4-oxadiazol-5-yl)methyl)-2,6-dioxo-2,3-dihydro-1H-purin-7(6H)-yl)-N-(2-(6-methyl-5-(trifluoromethyl)pyridin-3-yl)thiazol-4-yl)propanamide]
17 | 1 | Cc1cc(Cn2c(=O)c3c(ncn3[C@@H](C)C(=O)Nc3ccnc(-c4cnc(C)c(C(F)(F)F)c4)n3)n(C)c2=O)no1 [Compound 110, (S)-2-(3-methyl-1-((5-methylisoxazol-3-yl)methyl)-2,6-dioxo-2,3-dihydro-1H-purin-7(6H)-yl)-N-(2-(6-methyl-5-(trifluoromethyl)pyridin-3-yl)pyrimidin-4-yl)propanamide]
18 | 1 | Cc1cc(Cn2c(=O)c3c(ncn3[C@@H](C)C(=O)Nc3csc(-c4cnc(C)c(C(F)(F)F)c4)n3)n(C)c2=O)no1 [Compound 112, (S)-2-(3-methyl-1-((5-methylisoxazol-3-yl)methyl)-2,6-dioxo-2,3-dihydro-1H-purin-7(6H)-yl)-N-(2-(6-methyl-5-(trifluoromethyl)pyridin-3-yl)thiazol-4-yl)propanamide]
19 | 2 | CCC(=O)Cn1c(=O)c2c(ncn2[C@@H](C)C(=O)Nc2cccc(-c3cnc(N4CC5CC5C4)cn3)n2)n(C)c1=O (stereo partly drawn) [Compound 113, (2S)—N-(6-(5-(3-azabicyclo[3.1.0]hexan-3-yl)pyrazin-2-yl)pyridin-2-yl)-2-(3-methyl-2,6-dioxo-1-(2-oxobutyl)-2,3-dihydro-1H-purin-7(6H)-yl)propanamide]
20 | 2 | Cc1cc(Cn2c(=O)c3c(ncn3[C@@H](C)C(=O)Nc3ccnc(-c4cnc(N5CCC[C@H]5C(F)(F)F)nc4)n3)n(C)c2=O)no1 [Compound 114, (S)-2-(3-methyl-1-((5-methylisoxazol-3-yl)methyl)-2,6-dioxo-2,3-dihydro-1H-purin-7(6H)-yl)-N-(2′-((S)-2-(trifluoromethyl)pyrrolidin-1-yl)-[2,5′-bipyrimidin]-4-yl)propanamide]
